Data as given in BigSolDB 2.1.

CC[C@H](CC[C@@H](C)[C@H]1CC[C@H]2[C@@H]3CC=C4C[C@@H](O)CC[C@]4(C)[C@H]3CC[C@]12C)C(C)C
solubility (mole fraction)
Details	in acetone	in ethanol	in ethyl acetate	in methanol	in n-hexane
278.15 K	0.00274	0.0013	0.00447	0.000136	0.000862
283.15 K	0.00322	0.00158	0.0053	0.000167	0.00103
288.15 K	0.00379	0.0019	0.00627	0.000205	0.00123
293.15 K	0.00446	0.00229	0.00738	0.000248	0.00147
298.15 K	0.00525	0.00274	0.00872	0.000299	0.00173
303.15 K	0.00616	0.00328	0.0103	0.000357	0.00205
308.15 K	0.00724	0.00389	0.012	0.000427	0.0024
313.15 K	0.00852	0.0046	0.014	0.000509	0.0028
318.15 K	0.01	0.0054	0.0163	0.000606	0.00326
323.15 K	0.0118	0.00632	0.019	0.00072	0.00377
328.15 K	0.0139	0.00738	–	0.000855	0.00436
333.15 K	–	0.00856	–	–	0.005
